The structures appear in SMILES notation.

Data set [1] relates to thoracic aorta of rabbits fed 1% cholesterol diet. Put plainly: Analysis for fatty streak deposition in thoracic aorta. It is filed as in vivo, rabbit. The conditions noted are these: microscopic pictures, 1% cholesterol plus 0.15% bioflavonoid or 1.5 mg/kg simvastatin, control: thick layer. As to the method:
The chest wall of each rabbit (sacrificed in Step B) was incised, a portion of thoracic aorta from 1 cm site above aortic valve downward for 5 cm was cut out. The surrounding fatty tissues were removed, the aorta was incised longitudinally and pinned to a dish. The moist aorta was then photographed, and staining of fatty streak was carried out with the method described by Esper, E. et al. (Journal of Lab. Clinical Medicine; 121, pp 103-110(1993)) as follows.
The opened portion of aortas were pinned to a wooden tongue depressor, washed three times for 2 minutes with anhydrous propylene glycol and stained for 30 minutes with saturated solution of Oil Red O dissolved in propylene glycol. Then the aortas were washed twice for 3 minutes with 85% propylene glycol, to remove remaining staining solution by washing with normal saline solution. The aortas were photographed, and the photographs were traced with an image analyzer (LEICA, Q-600, Germany), and the area of stained portion were fatty streak region, its proportion in percentile (%) to the total aorta area were calculated.

Data set [2] deals with liver of rabbits fed 1% cholesterol diet. The data set can be described thus: Fatty degeneration in the liver of the rabbits. The format is in vivo, rabbit. The conditions noted are these: 1% cholesterol plus 0.15% bioflavonoid or 1.5 mg/kg Simvastatin. An excerpt:
According to the report of Fogt F. and Nanji A., (Toxicology and Applied Pharmacology; 136, pp 87-93, 1996) and Keegan A. et al., (Journal of Hepatology; 23, pp 591-600, 1995). […]

Another data set relates to ICR female mice. The conditions noted are these: single oral dose (rutin 1500, quercetin 125, kaempherol 1000, vitexin 500 mg/kg), observed 30 days.
A further data set deals with T1, 3-HMG-CoA reductase (Oryctolagus cuniculus, UniProt Q29512).
T1 construct: ultracentrifuged at 100,000 times gram for 60 minutes and again for another 60 minutes to obtain microsomal precipitates; from tissue; host or cells: rabbit liver microsomes
T1 sequence (Q29512 1-888): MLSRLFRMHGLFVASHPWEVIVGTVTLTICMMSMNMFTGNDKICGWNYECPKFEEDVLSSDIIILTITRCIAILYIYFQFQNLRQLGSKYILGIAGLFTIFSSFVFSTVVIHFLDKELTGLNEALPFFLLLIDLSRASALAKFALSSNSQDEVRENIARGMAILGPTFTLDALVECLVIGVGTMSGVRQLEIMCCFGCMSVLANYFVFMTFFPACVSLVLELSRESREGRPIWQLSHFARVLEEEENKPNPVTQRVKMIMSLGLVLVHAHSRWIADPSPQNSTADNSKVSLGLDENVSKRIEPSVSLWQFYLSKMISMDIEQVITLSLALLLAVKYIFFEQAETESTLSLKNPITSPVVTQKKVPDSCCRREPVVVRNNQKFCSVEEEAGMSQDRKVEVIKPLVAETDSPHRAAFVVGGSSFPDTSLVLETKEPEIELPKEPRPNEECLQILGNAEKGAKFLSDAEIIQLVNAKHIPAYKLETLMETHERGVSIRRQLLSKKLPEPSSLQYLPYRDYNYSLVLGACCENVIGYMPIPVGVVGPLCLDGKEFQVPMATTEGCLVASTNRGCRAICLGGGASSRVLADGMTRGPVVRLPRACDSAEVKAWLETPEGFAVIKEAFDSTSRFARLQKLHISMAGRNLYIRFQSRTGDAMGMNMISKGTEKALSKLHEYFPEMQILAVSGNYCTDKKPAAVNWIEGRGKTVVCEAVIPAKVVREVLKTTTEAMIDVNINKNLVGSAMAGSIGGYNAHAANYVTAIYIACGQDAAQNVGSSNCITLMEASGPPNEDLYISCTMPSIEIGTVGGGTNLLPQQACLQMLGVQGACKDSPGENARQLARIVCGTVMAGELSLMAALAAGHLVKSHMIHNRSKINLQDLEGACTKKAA
The data set can be described thus: Activity of 3-HMG-CoA reductase in liver microsomes (modified Hulcher's method). It is filed as biochemical, rabbit. The conditions noted are these: liver microsomes of rabbits fed 8 weeks 1% cholesterol plus 0.15% bioflavonoid; control group 0%.

Procedure for 3-HMG-CoA reductase: The activity of 3-HMG-CoA reductase was determined by modified Hulcher's method (Journal of lipid research; 14, 625-641, 1973), in which the concentration of Co-A will be produced when 3-HMG-CoA is reduced to mevalonate salt by the action of the 3-HMG-CoA reductase; then the reductase was determined by spectroscopy and the activity of the 3-HMG-CoA reductase was calculated.
Liver tissues from each group of rabbits from Example 4 Step B were obtained, 3 gram of tissue was washed with 100 ml of cold normal saline (1 N NaCl) and 100 ml of cold buffer solution-A (0.1M triethanolamine HCl/10 mM EDTA/10 mM dithiothreitol (DTT)). A cold buffered solution-A and liver tissue ratio was 2 ml per each gram. Then the mixture was minced and homogenized with a homogenizer, the homogenate was centrifuged at 20,000 times gram for 15 minutes, the supernatant was ultracentrifuged at 100,000 times gram for 60 minutes and again for another 60 minutes to obtain microsomal precipitates. The precipitates were washed with cold buffer solution-A and kept at minus 70 degree C. till ready for analysis.
There were 3 reactive substrates used in this assay (a) buffer solution B; 0.1 M triethanolamine HCl/10 mM EDTA with ph 7.4 (b) 3-HMG-CoA solution; 150 mu.moles/culture medium, (c) NADPH solution; 2 mu.moles/culture medium.
The microsomal suspension was then mixed with reaction substrates in a centrifuge tube and allowed to react at 37 degree C. for 30 minutes, then added with 20 mu 1 of 10 mM sodium arsenous solution and allowed to react for 1 minute, and then added with 100 µl of citrate buffer solution (2M sodium citrate/3 M sodium tungstate, with Ph of 3.5) at 37 degree C. for 10 minutes, then centrifuged at 30,000 times gram for 15 minutes to remove protein. […]
The mixture was then added with 20 µl of DTNB buffer solution (3 mM DTNB/0.1M triethanolamine/10 mM EDTA with PH of 7.4). The absorbance of this mixture was determined at wave length of 412 nm to calculate the amount of CoA that is the activity of 3-HMG-CoA reductase.

In the case of `O=c1c(O)c(-c2ccc(O)cc2)oc2cc(O)cc(O)c12` [Kaempherol, 3,5,7,4′ tetra-hydroxy-flavone], the “macrophage lipid cell complex in the aorta walls (FIGS. IB-IF)” value (from here on “macrophage lipid cell complex”) in data set [1] is reported as “no or a very thin layer of macrophage lipid cell complex”. Moreover, the “microscopic features of the liver (FIGS. 2B-2F)” value (“microscopic features” below) in data set [2] was “almost all of the liver cells are normal without containing fat particles”. Also, the survival result with ICR female mice is “alive at day 31”.

As for `O=c1c(O)c(-c2ccc(O)c(O)c2)oc2cc(O)cc(O)c12` [Quercetin, 3,5,7,3′,4′ penta-hydroxy flavone], the “macrophage lipid cell complex” value in data set [1] is “no or a very thin layer of macrophage lipid cell complex”. In data set [2], the “microscopic features” value was “almost all of the liver cells are normal without containing fat particles”. Also, on 3-HMG-CoA reductase, the “Inhibition on the activity of 3-HMG-CoA reductase in percentage (%)” value worked out at 32%. In addition, the survival result in the data set on ICR female mice is recorded as “alive at day 31”.

For the compound `C[C@@H]1O[C@@H](OC[C@H]2O[C@@H](Oc3c(-c4ccc(O)c(O)c4)oc4cc(O)cc(O)c4c3=O)[C@H](O)[C@@H](O)[C@@H]2O)[C@H](O)[C@H](O)[C@H]1O` [Rutin, quercetin-3-rutinoside], the “Inhibition on the activity of 3-HMG-CoA reductase in percentage (%)” value on 3-HMG-CoA reductase is recorded as 45%. Also, in the data set with ICR female mice, the body weight entry was “no body weight loss” and the survival result is “alive at day 31”.

In the case of `O=c1cc(-c2ccc(O)cc2)oc2c(C3O[C@H](CO)[C@@H](O)[C@H](O)[C@H]3O)c(O)cc(O)c12` (stereo partly drawn) [Vitexin, 8-D-glucosyl-4′,5,7 trihydroxy-flavone], in data set [1], the “macrophage lipid cell complex” value is listed as “no or a very thin layer of macrophage lipid cell complex”. In addition, in data set [2], the “microscopic features” value is listed as “almost all of the liver cells are normal without containing fat particles”. Besides, the “Inhibition on the activity of 3-HMG-CoA reductase in percentage (%)” value on 3-HMG-CoA reductase is given as 30%. Moreover, in the data set with ICR female mice, the body weight entry is given as “no body weight loss” and the survival entry was “alive at day 31”.

Source of the values: US20060040911A1, “Method for preventing and/or treating the cardiovascular and hepatic diseases induced by hyperlipidemia which comprises administered an effective amount of bioflavonoids extract derived from fructus crataegus (lipid metabolism and fructus crataegus)” (priority 2003, published 2006).
